Source: US8962664B2, “Selective glycosidase inhibitors and uses thereof” (Simon Fraser University, priority 2006, dated 2015)
“Also recorded” adds a separate entry of the source.

Key:
[1] = Nine-month repeat dose toxicology study in mice: urinalysis; type: in vivo, wild-type JNPL3 mice; settings: mice dosed orally nine months, week 40, pooled urine; F2: NAG-Bt 100 then 1000 mg/kg/day (n = 2); F1: NAG-Bt 100 then NAG-AE 500 mg/kg/day (n = 3)
Method: (§1) The toxicological effects of repeated oral administration of (3aR,5R,6S,7R,7aR)-5-(hydroxymethyl)-2-propyl-5,6,7,7a-tetrahydro-3aH-pyrano[3,2-d]thiazole-6,7-diol (NAG-Bt) and (3aR,5R,6S,7R,7aR)-2-(ethylamino)-5-(hydroxymethyl)-5,6,7,7a-tetrahydro-3aH-pyrano[3,2-d]thiazole-6,7-diol (NAG-AE) to wild-type JNPL3 mice over nine months was measured. All animals were obtained from Taconic Farms, Inc. (model number 001638-W-F), and were 10-12 weeks of age at delivery, designated “week 1” of the study. In week 1, the mice were split into three groups: Group E received vehicle alone throughout the study; Group F1 received 100 mg/kg/day NAG-Bt in their food from week 1 to week 15, then were switched to 500 mg/kg/day NAG-AE in their drinking water from week 16 to week 40; Group F2 received 100 mg/kg/day NAG-Bt in their food from week 1 to week 15 then were switched to 1000 mg/kg/day NAG-Bt in their drinking water from week 16 to week 40. […] In week 40, blood and urine samples were collected from animals in each group; the urine samples for animals in each group were pooled prior to analysis, while the blood samples were analyzed individually.

[2] = Nine-month repeat dose toxicology study in mice: general observations; type: in vivo, wild-type JNPL3 mice; settings: oral, nine months, comparatively high levels
Method: as §1

[3] = system: tau phosphorylation and NFT formation; test: Reduction of NFT formation in transgenic P301L JNPL3 mice; type: in vivo; settings: oral, Group B NAG-Bt 100 then 1000 mg/kg/day; for protein O-GlcNAc modification in hippocampal brain sections: Group D NAG-AE 500 mg/kg/day weeks 16 to 32, anti-OGlcNAc staining; for tau phosphorylation and NFT formation in hippocampal brain sections: Group D NAG-AE 500 mg/kg/day weeks 16 to 32, anti-phospho Tau-Ser404 staining, vs untreated transgenic Group A
Method: Animal Dosing and Tissue Collection. Hemizygous transgenic female JNPL3 mice overexpressing human mutant tau protein (P301L) and wild type control mice were obtained from Taconic Farms, Inc. (model numbers 001638-T-F and 001638-W-F, respectively). The mice were 10-12 weeks of age at delivery, designated “week 1” of the study. In week 1, the mice were split into four groups: Group A (transgenic mice) received vehicle alone throughout the study; Group B (transgenic mice) received 100 mg/kg/day NAG-Bt in their food from week 1 to week 15, then were switched to 1000 mg/kg/day NAG-Bt in their drinking water from week 16 to week 32; Group D (transgenic mice) received vehicle alone from weeks 1 to 15, and then 500 mg/kg/day NAG-AE in their drinking water from weeks 16 to 32; Group E (wild-type) received vehicle alone throughout the study. In week 32, three animals per group were sacrificed and tissues were collected. Transgenic mice and controls were sacrificed using a CO2 chamber. About 45 seconds after they stopped breathing, they were perfused transcardially with 30 mL of 0.9% NaCl buffer followed by 30 mL of 4% paraformaldehyde (w/v in 1× phosphate-buffered saline, PBS, pH 7.4). The brains were then carefully dissected and post-fixed in 4% parformaldehyde before being cryoprotected in 20% sucrose (w/v in 1×PBS) for 24 hours at 4° C.
Cryostat sectioning. The brains were then mounted with optimal cutting temperature (OCT) medium (Tissue Tek) and sectioned sagittally on a Reichert-Jung Cryocut 1800 (Leica) using Feather microtome blades (Tissue Tek) at 50 μm and placed in 1×PBS for further processing. The cryostat temperature was set at −17° C. to −19° C.
Immunohistochemical Staining. Free-floating 50 μm sagittal sections (lateral about 0.6 mm from midline, Mouse Brain in Stereotaxic Coordinates, second edition, by George Paxinos and Leith B. J. Franklin) were permeabilized with 1×PBS containing 0.3% Triton X-100 for 15 min. After blocking with 10% goat serum and 2.5% BSA for 1 h at room temperature, sections were incubated with specific antibodies overnight at 4° C. (primary antibodies: anti-OGlcNAc, Covance; anti-phospho Tau-ser404, Santa Cruz). The sections then were washed three times with 0.3% Triton X-100 in PBS for 15 min each and incubated with specific secondary antibody conjugated with Cy3 or FITC for 1.5 h at room temperature in the dark. After several washes in 1×PBS, sections were mounted on slides and air-dried in the dark. Once dry, Vectashield Mounting Medium (Vector Laboratories, Inc.) was added to the slide before applying coverslips. Coverslips were sealed with clear nail enamel and slides were stored in dark at 4° C. For negative control staining, sections were incubated without primary antibodies.
Imaging. […]

[4] = Nine-month repeat dose toxicology study in mice: hematology (CBC) and serum chemistry; type: in vivo, wild-type JNPL3 mice; settings: oral, nine months
Method: as §1

SMILES | Urine Appear [1] | Urine Bilirubin [1] | Urine Blood [1] | Urine Cocci [1] | Urine Color [1] | Urine Creatinine [1] | Urine Epith [1] | Urine Glucose [1] | Urine Ketones [1] | Urine Protein [1] | Urine RBC [1] | Urine Rods [1] | Urine Sp. Grv. [1] | Urine Urobil [1] | Urine WBC [1] | Urine pH [1] | toxicological consequences of long-term dosing [2] | protein O-GlcNAc modification in hippocampal brain sections [3] | tau phosphorylation and NFT formation in hippocampal brain sections [3] | changes in ALT, AST, or sorbitol dehydrogenase (liver toxicity) [4]
CCNC1=N[C@@H]2[C@@H](O)[C@H](O)[C@@H](CO)O[C@@H]2S1 [NAG-AE, (3aR,5R,6S,7R,7aR)-2-(ethylamino)-5-(hydroxymethyl)-5,6,7,7a-tetrahydro-3aH-pyrano[3,2-d]thiazole-6,7-diol] | Slcloudy | Neg | Neg | Neg | Yellow | 3105.4 | Few | Neg | Neg | Neg | Neg | Neg | 1.039 | Normal | Neg | 6 | no serious toxicological consequences | dramatically elevated | dramatically reduced; also recorded: significantly decreased | no changes
CCCC1=N[C@@H]2[C@@H](O)[C@H](O)[C@@H](CO)O[C@@H]2S1 [NAG-Bt, (3aR,5R,6S,7R,7aR)-5-(hydroxymethyl)-2-propyl-5,6,7,7a-tetrahydro-3aH-pyrano[3,2-d]thiazole-6,7-diol] | Clear | Neg | – | Neg | Yellow | 7790.9 | Few | Neg | Neg | Neg | Neg | Neg | 1.05 | Normal | Neg | 5 | no serious toxicological consequences | dramatically elevated | dramatically reduced; also recorded: significantly decreased | no changes
